# Activity calls are given as the source filed them. The rule behind the calls is not given here. Where a SMILES comes first, the peptide text is derived from it. The star is where a group is joined. For = O=C*
# Tested on: CCRIS mutagenicity, Ames/micronucleus/aberration tests
# Experiment: CCRIS mutagenicity studies
# Conditions: Test System: AMES SALMONELLA TYPHIMURIUM
smiles,measurement,setting,value
CC(O)CCl (configuration not stated),mutagenic call,"Strain/Indicator: TA97, Metabolic Activation: HAMSTER, LIVER, S-9, AROCLOR 1254 (10%), Method: PREINCUBATION",inactive; negative
same,mutagenic call,"Strain/Indicator: TA97, Metabolic Activation: NONE, Method: PREINCUBATION",inactive; negative
same,mutagenic call,"Strain/Indicator: TA97, Metabolic Activation: RAT, LIVER, S-9, AROCLOR 1254 (10%), Method: PREINCUBATION",inactive; negative
same,mutagenic call,"Strain/Indicator: TA98, Metabolic Activation: HAMSTER LIVER S-9, AROCLOR 1254 (10%), Method: PREINCUBATION",inactive; negative
same,mutagenic call,"Strain/Indicator: TA98, Metabolic Activation: HAMSTER, LIVER, S-9, AROCLOR 1254 (10%), Method: PREINCUBATION",inactive; negative
same,mutagenic call,"Strain/Indicator: TA98, Metabolic Activation: NONE, Method: FLUCTUATION (MICROTITER)",inactive; negative
same,mutagenic call,"Strain/Indicator: TA98, Metabolic Activation: NONE, Method: PREINCUBATION",inactive; negative
same,mutagenic call,"Strain/Indicator: TA98, Metabolic Activation: RAT LIVER S-9, AROCLOR 1254 (10%), Method: PREINCUBATION",inactive; negative
same,mutagenic call,"Strain/Indicator: TA98, Metabolic Activation: RAT LIVER S-9, AROCLOR 1254, Method: FLUCTUATION (MICROTITER)",inactive; negative
same,mutagenic call,"Strain/Indicator: TA98, Metabolic Activation: RAT, LIVER, S-9, AROCLOR 1254 (10%), Method: PREINCUBATION",inactive; negative
same,mutagenic call,"Strain/Indicator: TA100, Metabolic Activation: HAMSTER, LIVER, S-9, AROCLOR 1254 (10%), Method: PREINCUBATION",inactive; negative
same,mutagenic call,"Strain/Indicator: TA100, Metabolic Activation: NONE, Method: PREINCUBATION",inactive; negative
same,mutagenic call,"Strain/Indicator: TA100, Metabolic Activation: RAT, LIVER, S-9, AROCLOR 1254 (10%), Method: PREINCUBATION",inactive; negative
same,mutagenic call,"Strain/Indicator: TA1535, Metabolic Activation: HAMSTER LIVER S-9, AROCLOR 1254 (10%), Method: PREINCUBATION",active; positive
same,mutagenic call,"Strain/Indicator: TA1535, Metabolic Activation: HAMSTER, LIVER, S-9, AROCLOR 1254 (10%), Method: PREINCUBATION",active; positive
same,mutagenic call,"Strain/Indicator: TA1535, Metabolic Activation: NONE, Method: PREINCUBATION",active; positive
same,mutagenic call,"Strain/Indicator: TA1535, Metabolic Activation: RAT LIVER S-9, AROCLOR 1254 (10%), Method: PREINCUBATION",active; positive
same,mutagenic call,"Strain/Indicator: TA1535, Metabolic Activation: RAT, LIVER, S-9, AROCLOR 1254 (10%), Method: PREINCUBATION",active; positive
same,mutagenic call,"Strain/Indicator: TA1537, Metabolic Activation: HAMSTER LIVER S-9, AROCLOR 1254 (10%), Method: PREINCUBATION",inactive; negative
same,mutagenic call,"Strain/Indicator: TA1537, Metabolic Activation: HAMSTER, LIVER, S-9, AROCLOR 1254 (10%), Method: PREINCUBATION",inactive; negative
same,mutagenic call,"Strain/Indicator: TA1537, Metabolic Activation: NONE, Method: FLUCTUATION (MICROTITER)",inactive; negative
same,mutagenic call,"Strain/Indicator: TA1537, Metabolic Activation: NONE, Method: PREINCUBATION",inactive; negative
same,mutagenic call,"Strain/Indicator: TA1537, Metabolic Activation: RAT LIVER S-9, AROCLOR 1254 (10%), Method: PREINCUBATION",inactive; negative
same,mutagenic call,"Strain/Indicator: TA1537, Metabolic Activation: RAT LIVER S-9, AROCLOR 1254, Method: FLUCTUATION (MICROTITER)",inactive; negative
same,mutagenic call,"Strain/Indicator: TA1537, Metabolic Activation: RAT, LIVER, S-9, AROCLOR 1254 (10%), Method: PREINCUBATION",inactive; negative
same,mutagenic call,"Strain/Indicator: TA7001, Metabolic Activation: NONE, Method: FLUCTUATION (MICROTITER)",inactive; negative
same,mutagenic call,"Strain/Indicator: TA7001, Metabolic Activation: RAT LIVER S-9, AROCLOR 1254, Method: FLUCTUATION (MICROTITER)",inactive; negative
same,mutagenic call,"Strain/Indicator: TA7002, Metabolic Activation: NONE, Method: FLUCTUATION (MICROTITER)",inactive; negative
same,mutagenic call,"Strain/Indicator: TA7002, Metabolic Activation: RAT LIVER S-9, AROCLOR 1254, Method: FLUCTUATION (MICROTITER)",inactive; negative
same,mutagenic call,"Strain/Indicator: TA7003, Metabolic Activation: NONE, Method: FLUCTUATION (MICROTITER)",inactive; negative
same,mutagenic call,"Strain/Indicator: TA7003, Metabolic Activation: RAT LIVER S-9, AROCLOR 1254, Method: FLUCTUATION (MICROTITER)",inactive; negative
same,mutagenic call,"Strain/Indicator: TA7004, Metabolic Activation: NONE, Method: FLUCTUATION (MICROTITER)",inactive; negative
same,mutagenic call,"Strain/Indicator: TA7004, Metabolic Activation: RAT LIVER S-9, AROCLOR 1254, Method: FLUCTUATION (MICROTITER)",inactive; negative
same,mutagenic call,"Strain/Indicator: TA7005, Metabolic Activation: NONE, Method: FLUCTUATION (MICROTITER)",inactive; negative
same,mutagenic call,"Strain/Indicator: TA7005, Metabolic Activation: RAT LIVER S-9, AROCLOR 1254, Method: FLUCTUATION (MICROTITER)",inactive; negative
same,mutagenic call,"Strain/Indicator: TA7006, Metabolic Activation: NONE, Method: FLUCTUATION (MICROTITER)",inactive; negative
same,mutagenic call,"Strain/Indicator: TA7006, Metabolic Activation: RAT LIVER S-9, AROCLOR 1254, Method: FLUCTUATION (MICROTITER)",inactive; negative
CSCC[C@H](NC=O)C(=O)N[C@@H](Cc1ccccc1)C(=O)O (For-Met-Phe-OH),mutagenic call,"Strain/Indicator: TA98, Metabolic Activation: NONE, Method: STANDARD PLATE",inactive; negative
same,mutagenic call,"Strain/Indicator: TA98, Metabolic Activation: RAT, LIVER, S-9, AROCLOR 1254, Method: STANDARD PLATE",inactive; negative
same,mutagenic call,"Strain/Indicator: TA100, Metabolic Activation: NONE, Method: STANDARD PLATE",inactive; negative
same,mutagenic call,"Strain/Indicator: TA100, Metabolic Activation: RAT, LIVER, S-9, AROCLOR 1254, Method: STANDARD PLATE",inactive; negative
same,mutagenic call,"Strain/Indicator: TA1535, Metabolic Activation: NONE, Method: STANDARD PLATE",inactive; negative
same,mutagenic call,"Strain/Indicator: TA1535, Metabolic Activation: RAT, LIVER, S-9, AROCLOR 1254, Method: STANDARD PLATE",inactive; negative
same,mutagenic call,"Strain/Indicator: TA1537, Metabolic Activation: NONE, Method: STANDARD PLATE",inactive; negative
same,mutagenic call,"Strain/Indicator: TA1537, Metabolic Activation: RAT, LIVER, S-9, AROCLOR 1254, Method: STANDARD PLATE",inactive; negative
OCc1cc2ccccc2c2ccc3ccccc3c12,mutagenic call,"Strain/Indicator: TA98, Metabolic Activation: RAT, LIVER, CYTOSOL AND PAPS GENERATING SYSTEM, Method: PREINCUBATION",active; positive
same,mutagenic call,"Strain/Indicator: TA98, Metabolic Activation: RAT, LIVER, S-9 AND NADPH GENERATING SYSTEM, Method: PREINCUBATION",inactive; negative
